Converted amounts (≈) assume the structure as drawn. “And” between values parts separate entries of the source, which are not always exact repeats. Equal entries are not always repeated. Where two headings read alike, the source gives them in different places.
Tests used:
Clostridium perfringens = settings: anaerobe, agar-dilution
[1] = test system: Peptostreptococcus anaerobius; test: MIC against anaerobic bacteria, standard agar-dilution (Table XIV); assay type: cell-based; settings: anaerobe
Streptococcus pneumoniae [2] = test: Experimental bacterial infection in mice, ED50; assay type: in vivo; settings: S. pneumoniae infection, two doses, subcutaneous administration
Method: (§1) When two doses of test compound were administered to mice in illustrative infections, the activity observed as measured as an ED50 value [effective dose in mg/kg to protect fifty percent of the test animals: See Warren Wick, et al., J. Bacteriol, 81, 233-235 (1961)].

Staphylococcus aureus [3] = test: Experimental bacterial infection in mice, ED50; assay type: in vivo; settings: S. aureus infection, two doses, subcutaneous administration
Method: as §1

Streptococcus pyogenes [4] = test: Experimental bacterial infection in mice, ED50; assay type: in vivo; settings: S. pyogenes infection, two doses
Method: as §1

Viridans Streptococcus = test: MIC against clinical isolates, ICS agar-dilution (Table XIII); assay type: cell-based; settings: 2 clinical isolates, bracket = number of isolates with this MIC or range
[5] = test system: Peptococcus asaccharolyticus; test: MIC against anaerobic bacteria, standard agar-dilution (Table XIV); assay type: cell-based; settings: anaerobe
Clostridium septicum = test: as above; assay type: cell-based; settings: anaerobe
Peptococcus prevoti = test: as above; assay type: cell-based; settings: anaerobe
Fusobacterium symbiosum = test: as above; assay type: cell-based; settings: anaerobe
[6] = test system: Viridans Streptococcus 9943; test: MIC, standard agar-dilution test (Table XI); assay type: cell-based; settings: aerobic, sodium salt form
Bacteroides fragilis = test: MIC against anaerobic bacteria, standard agar-dilution (Table XIV); assay type: cell-based; settings: anaerobe
[7] = test system: Fusobacterium necrophorum; test: as above; assay type: cell-based; settings: anaerobe
[8] = Mouse
[9] = Rat, IV
[10] = test system: Neisseria gonorrhoeae 111076-4; test: MIC, standard agar-dilution test (Table XI); assay type: cell-based; settings: aerobic, N. gonorrhoeae 111076-4, sodium salt form
[11] = test system: Streptococcus pneumoniae Park I; test: MIC, standard broth-dilution test (Table XII); assay type: cell-based; settings: aerobic, S. pneumoniae Park I
[12] = test system: Streptococcus faecalis (Guze); test: Streptococcus faecalis descending rat pyelonephritis test; settings: 1.0 mg/kg x 7 subcutaneous
[13] = test system: Staphylococcus aureus 3055; test: MIC, standard agar-dilution test (Table XI); assay type: cell-based; settings: aerobic, S. aureus 3055, sodium salt form
Micrococcus luteus = test: Paper-disc agar-diffusion bioassay; settings: individual factors, Na salts
[14] = test system: Streptococcus pyogenes C203; test: MIC, standard broth-dilution test (Table XII); assay type: cell-based; settings: aerobic, S. pyogenes C203
[15] = test system: Group D Streptococcus 282; test: MIC, standard broth-dilution test (Table XII); assay type: cell-based; settings: aerobic
Actinomyces israelii = test: MIC against anaerobic bacteria, standard agar-dilution (Table XIV); assay type: cell-based; settings: anaerobe
Streptococcus pneumoniae [16] = test: MIC, agar dilution (Table XV); assay type: cell-based
Text: (§2) ^1 MIC = minimum inhibitory concentration (μg/ml), agar dilution

Staphylococcus aureus [17] = test: MIC, agar dilution (Table XV); assay type: cell-based
Text: as §2

Streptococcus pyogenes [18] = test: MIC, agar dilution (Table XV); assay type: cell-based
Text: as §2

[19] = test system: Streptococcus pyogenes C203; test: MIC, standard agar-dilution test (Table XI); assay type: cell-based; settings: aerobic, S. pyogenes C203, sodium salt form
[20] = test system: Group D Streptococcus 282; test: MIC, standard agar-dilution test (Table XI); assay type: cell-based; settings: aerobic, sodium salt form
[21] = test system: Viridans Streptococcus 9943; test: MIC, standard broth-dilution test (Table XII); assay type: cell-based; settings: aerobic
Eubacterium aerofaciens = test: MIC against anaerobic bacteria, standard agar-dilution (Table XIV); assay type: cell-based; settings: anaerobe
[22] = Electrometric titration in 66% aqueous dimethylformamide; assay type: physicochemical; settings: 66% DMF, Na salt forms; factors: two determinations
[23] = test system: Streptococcus pneumoniae Park I; test: MIC, standard agar-dilution test (Table XI); assay type: cell-based; settings: aerobic, S. pneumoniae Park I, sodium salt form
[24] = test system: Staphylococcus aureus 3055; test: MIC, standard broth-dilution test (Table XII); assay type: cell-based; settings: aerobic, S. aureus 3055
[25] = test system: Peptostreptococcus intermedius; test: MIC against anaerobic bacteria, standard agar-dilution (Table XIV); assay type: cell-based; settings: anaerobe
Propionibacterium acnes = test: as above; assay type: cell-based; settings: anaerobe
Staphylococcus aureus [26] = test: MIC against clinical isolates, ICS agar-dilution (Table XIII); assay type: cell-based; settings: 10 clinical isolates, bracket = number of isolates with this MIC or range
[27] = test system: Streptococcus faecalis (Guze); test: In vitro susceptibility (MIC) of the S. faecalis Guze strain; assay type: cell-based
Text: ^1 In vitro susceptibility of the S. faecalis Guze strain

## CCC(C)CCCCCCCCC(=O)NC(Cc1c[nH]c2ccccc12)C(=O)NC(CC(N)=O)C(=O)NC(CC(=O)O)C(=O)NC1C(=O)NCC(=O)NC(CCCN)C(=O)NC(CC(=O)O)C(=O)NC(C)C(=O)NC(CC(=O)O)C(=O)NCC(=O)NC(CO)C(=O)NC(C(C)CC(=O)O)C(=O)NC(CC(=O)c2ccccc2N)C(=O)OC1C (centres unmarked) [Factor C3]
Clostridium perfringens
  MIC: 8 µg/mL (≈ 4.81 µM)
[1]
  MIC: 1.0 µg/mL (≈ 0.601 µM)
Streptococcus pneumoniae [2]
  ED50: 0.09 mg/kg
Staphylococcus aureus [3]
  ED50: 0.08 mg/kg
Streptococcus pyogenes [4]; oral administration
  ED50: 66 mg/kg
Streptococcus pyogenes [4]; subcutaneous administration
  ED50: 0.032 mg/kg
Viridans Streptococcus
  Minimum Inhibitory Concentration: 0.5 µg/mL
[5]
  MIC: 1.0 µg/mL (≈ 0.601 µM)
Clostridium septicum
  MIC: 1.0 µg/mL (≈ 0.601 µM)
Peptococcus prevoti
  MIC: < 0.5 µg/mL
Fusobacterium symbiosum
  MIC: 16 µg/mL (≈ 9.62 µM)
[6]
  MIC: 0.5 µg/mL
Bacteroides fragilis
  MIC: > 128 µg/mL
[7]
  MIC: 32 µg/mL (≈ 19.2 µM)
[8]; IV
  LD50: < 50 mg/kg
[8]; SC
  LD50: 70 to 75 mg/kg
[9]
  LD50: < 160 mg/kg
[10]
  MIC: 4.0 µg/mL
[11]
  MIC: .5 µg/mL (≈ 0.301 µM)
[12]; cure = kidney counts less than 10^2 per g
  Percent of Rats Cured: 78
[12]; once daily, kidney titer vs infected controls
  Percent of Rats with a 4-Log Titer Decrease: 78
[13]
  MIC: 0.06 µg/mL
Micrococcus luteus
  Bioassay (Micrococcus luteus): 803 units/mg
[14]
  MIC: 0.13 µg/mL (≈ 0.0782 µM)
[15]
  MIC: 0.13 µg/mL (≈ 0.0782 µM)
Actinomyces israelii
  MIC: 1.0 µg/mL (≈ 0.601 µM)
Streptococcus pneumoniae [16]
  MIC: 0.03 µg/mL (≈ 0.018 µM)
Staphylococcus aureus [17]
  MIC: 0.06 µg/mL (≈ 0.0361 µM)
Streptococcus pyogenes [18]
  MIC: 0.06 µg/mL (≈ 0.0361 µM)
[19]
  MIC: 0.25 µg/mL
[20]
  MIC: 0.13 µg/mL
[21]
  MIC: 32.0 µg/mL (≈ 19.2 µM)
Eubacterium aerofaciens
  MIC: 4 µg/mL (≈ 2.41 µM)
[22]
  pKa Values (first group): 5.73 and 5.75
  pKa Values (second group): 7.54 and 7.58
[23]
  MIC: 0.13 µg/mL
[24]
  MIC: 0.13 µg/mL (≈ 0.0782 µM)
[25]
  MIC: < 0.5 µg/mL
Propionibacterium acnes
  MIC: 1.0 µg/mL (≈ 0.601 µM)
Staphylococcus aureus [26]
  Minimum Inhibitory Concentration: 0.06 to 0.12 µg/mL
[27]
  MIC: 0.13 µg/mL (≈ 0.0782 µM)
